The target of data set [1] is recombinant BACE1 protein (Homo sapiens, UniProt P56817). Description: Biochemical FRET based assay. To be noted: recombinant BACE1 1 μg/ml, 120 minutes at room temperature, pH 5.0; for IC50: read-out: Biochemical FRET based assay pIC50 (converted). The procedure, abridged:
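Proteolysis was read as the rise in donor fluorescence (320 nm excitation, 405 nm emission) from T0 to T120, expressed in RFU. The reaction ran 120 minutes at room temperature at pH 5.0 in citrate buffer with 4% DMSO, using […] quenched Swedish APP peptide and 1 μg/ml BACE1.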

The next data set deals with Abeta total. The experiment in a line: Cellular αLisa assay in SKNBE2 cells, Abeta total. The data set is classed as cell-based, human. To be noted: incubated for 18 hours; for IC50: Homo sapiens, SKNBE2, 18 h, read-out: Cellular αLisa assay in SKNBE2 cells Abetatotal pIC50 (converted). The procedure, abridged: (§1)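 Secreted Abeta levels were measured by sandwich αLisa, pairing biotin-AbN/25 donor beads with Ab4G8 acceptor beads for total Abeta or cAb42/26 for Abeta 1-42, read at 615 nm after 650 nm excitation following 1 hour. Cells were SKNBE2 expressing wild-type hAPP695, exposed to compound for 18 hours.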

For a further data set, the system named is Abeta 1-42. The experiment in a line: Cellular αLisa assay in SKNBE2 cells, Abeta 1-42. The data set is classed as cell-based, human. As to conditions: incubated for 18 hours; for IC50: Homo sapiens, SKNBE2, 18 h, read-out: Cellular αLisa assay in SKNBE2 cells Abeta 42 pIC50 (converted). The procedure, abridged: as §1

Where a name gives a salt, the structure may show the parent alone.

Chain of recombinant BACE1 protein (P56817 46-501): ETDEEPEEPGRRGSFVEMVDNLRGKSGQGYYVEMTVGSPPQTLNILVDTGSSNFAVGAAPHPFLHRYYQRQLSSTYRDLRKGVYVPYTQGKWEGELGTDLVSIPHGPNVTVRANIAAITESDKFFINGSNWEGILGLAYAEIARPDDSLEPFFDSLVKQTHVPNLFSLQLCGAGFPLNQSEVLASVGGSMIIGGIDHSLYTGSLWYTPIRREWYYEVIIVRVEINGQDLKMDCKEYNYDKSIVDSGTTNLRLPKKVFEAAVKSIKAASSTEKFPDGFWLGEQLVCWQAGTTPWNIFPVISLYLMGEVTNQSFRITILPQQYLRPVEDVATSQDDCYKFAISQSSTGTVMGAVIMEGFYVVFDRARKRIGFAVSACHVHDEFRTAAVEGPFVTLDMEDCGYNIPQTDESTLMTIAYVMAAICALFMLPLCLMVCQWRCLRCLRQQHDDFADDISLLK

As to `C[C@@]1(c2cccc(-c3cncnc3)c2)COC2(CC2)C(N)=N1` (as salt: fumarate) [Compound 74], the melting point was determined as 193.3 °C.
Still for that read-out and setting: next, `CC1(c2cccc(-c3ccccc3)c2)COCC(N)=N1` (racemic) (as salt: TFA) [Compound 1, rac-5-biphenyl-3-yl-5-methyl-5,6-dihydro-2H-1,4-oxazin-3-amine trifluoroacetate salt]: 217.2 °C.
Take `CC1(c2cccc(-c3cc(Cl)cc(Cl)c3)c2)COCC(N)=N1` (racemic) [Compound 2, rac-5-(3′,5′-dichlorobiphenyl-3-yl)-5-methyl-5,6-dihydro-2H-1,4-oxazin-3-amine]: the melting point is 197 °C. Moreover, the IC50 in data set [1] was 1.91 µM. In addition, the IC50 with Abeta total was 0.617 µM. In addition, the IC50 in the data set with Abeta 1-42 is 0.724 µM.
On the same counts, the results for `CC1(c2cccc(NC(=O)c3ncccc3F)c2)COCC(N)=N1` (racemic) [Compound 6, rac-N-[3-(5-amino-3-methyl-3,6-dihydro-2H-1,4-oxazin-3-yl)phenyl]-3-fluoropyridine-2-carboxamide] are 155.6 °C, 5.13 µM, 0.457 µM and 0.513 µM.
Taken in the same sequence, the figures for `COc1cncc(-c2cccc(C3(C(F)(F)F)COCC(N)=N3)c2)c1` (racemic) [Compound 152, rac-5-[3-(5-methoxypyridin-3-yl)phenyl]-5-(trifluoromethyl)-5,6-dihydro-2H-1,4-oxazin-3-amine] were 202.5 °C, 3.89 µM, 3.16 µM and 3.16 µM.
On the same counts, the results for `NC1=NC(c2cccc(NC(=O)c3ccc(Cl)cn3)c2)(C2CC2)COC1` (racemic) [Compound 153, rac-N-[3-(5-Amino-3-cyclopropyl-3,6-dihydro-2H-1,4-oxazin-3-yl)phenyl]-5-chloropyridine-2-carboxamide] are 161.5 °C, 0.0891 µM, 0.0132 µM and 0.0115 µM.
In turn, `CC1(c2cc(-c3cncnc3)ccc2F)N=C(N)COC1F` (single isomer, unassigned) [Compound 75] came in with a melting point of 227.7 °C. In addition, the IC50 in data set [1] was 9.77 µM. Further, in the data set on Abeta total, the “Cellular αLisa assay in SKNBE2 cells Abetatotal pIC50” value was 5.46. For the same compound, the “Cellular αLisa assay in SKNBE2 cells Abeta 42 pIC50” value in the data set on Abeta 1-42 turned out to be 5.46.
With `C[C@@]1(c2cccc(NC(=O)c3ccc(Cl)cn3)c2)N=C(N)CO[C@H]1F` (single isomer, unassigned) [Compound 85, (S*,S*)—N-[3-(5-amino-2-fluoro-3-methyl-3,6-dihydro-2H-1,4-oxazin-3-yl)phenyl]-5-chloropyridine-2-carboxamide], the melting point was found to be 160.8 °C. Moreover, in data set [1], the IC50 was 6.46 µM. Besides, in the data set with Abeta total, the IC50 was 0.851 µM. The IC50 with Abeta 1-42 was 0.871 µM.
On to `CC1(c2cccc(-c3cncnc3)c2)N=C(N)COC1F` (single isomer, unassigned) [Compound 94], for which the melting point is 115.4 °C. In addition, in data set [1], the IC50 is greater than 30.2 µM. Further, the “Cellular αLisa assay in SKNBE2 cells Abetatotal pIC50” value in the data set with Abeta total is 5.34. Besides, the “Cellular αLisa assay in SKNBE2 cells Abeta 42 pIC50” value in the data set with Abeta 1-42 is 5.43.
`CC1(c2cccc(NC(=O)c3ccc(Cl)cn3)c2)N=C(N)COC1(F)C(F)(F)F` (single isomer, unassigned) [Compound 112] showed a melting point of 207.3 °C. Further, in the data set with Abeta total, the “Cellular αLisa assay in SKNBE2 cells Abetatotal pIC50” value is 5.71. Moreover, in the data set with Abeta 1-42, the “Cellular αLisa assay in SKNBE2 cells Abeta 42 pIC50” value was 5.68.
`N#Cc1cnc(C(=O)Nc2cccc([C@@]3(C4CC4)N=C(N)CO[C@@H]3C(F)(F)F)c2)c(Cl)c1` [Compound 290]: the IC50 was 0.0977 µM in data set [1], 0.0178 µM in the data set on Abeta total and 0.0186 µM in the data set on Abeta 1-42.
On the same counts, the results for `N#Cc1cnc(C(=O)Nc2cccc([C@@]3(C4CC4)N=C(N)CO[C@H]3C(F)(F)F)c2)c(Cl)c1` [Compound 291] are 0.0324 µM, 0.0049 µM and 0.00562 µM.
For the compound `CC#Cc1cncc(-c2ccc(F)c(C3(C4CC4)N=C(N)COC3F)c2)c1` (stereo not drawn) [Compound 292], the “Biochemical FRET based assay pIC50” value in data set [1] amounted to 6.17. In addition, in the data set on Abeta total, the “Cellular αLisa assay in SKNBE2 cells Abetatotal pIC50” value is listed as 6.17. The “Cellular αLisa assay in SKNBE2 cells Abeta 42 pIC50” value with Abeta 1-42 is given as 5.98.
Consider `CC#Cc1cncc(-c2ccc(F)c([C@@]3(C4CC4)N=C(N)CO[C@H]3F)c2)c1` [Compound 293], for which the IC50 in data set [1] is 1.38 µM; with Abeta total it was 1.55 µM; in the data set with Abeta 1-42, 1.86 µM.
On the same counts, the results for `NC1=N[C@@](c2cc(-c3cncc(Cl)c3)ccc2F)(C2CC2)[C@@H](F)OC1` [Compound 294] are 2.29 µM, 4.9 µM and 6.61 µM.
With `NC1=NC(c2cc(-c3cncnc3)ccc2F)(C2CC2)C(F)OC1` (stereo not drawn) [Compound 296], the “Biochemical FRET based assay pIC50” value in data set [1] was 5.42. In the data set with Abeta total, the “Cellular αLisa assay in SKNBE2 cells Abetatotal pIC50” value is reported as less than 5. In the data set on Abeta 1-42, the “Cellular αLisa assay in SKNBE2 cells Abeta 42 pIC50” value is listed as less than 5.
As for `Cc1cc(Cl)cnc1C(=O)Nc1cccc([C@@]2(C3CC3)N=C(N)CO[C@@H]2F)c1` [Compound 297], the IC50 in data set [1] is 0.0389 µM; with Abeta total, 0.0174 µM; in the data set on Abeta 1-42, 0.0191 µM.
On the same counts, the results for `Cc1cc(Cl)cnc1C(=O)Nc1cccc([C@@]2(C3CC3)N=C(N)CO[C@H]2F)c1` [Compound 298] are 0.123 µM, 0.0589 µM and 0.0617 µM.
With `CCC1(c2cc(NC(=O)c3cnc(OC)cn3)ccc2F)N=C(N)COC1(F)C(F)(F)F` (stereo not drawn) [Compound 300], the IC50 in data set [1] was 1.55 µM. The “Cellular αLisa assay in SKNBE2 cells Abetatotal pIC50” value in the data set with Abeta total amounted to 5.93. For the same compound, the “Cellular αLisa assay in SKNBE2 cells Abeta 42 pIC50” value with Abeta 1-42 came to 5.91.
On the same counts, the results for `CCC1(c2cc(-c3cncnc3)ccc2F)N=C(N)COC1(F)C(F)(F)F` (stereo not drawn) [Compound 302] are greater than 30.2 µM, less than 5 and less than 5.
With `COc1ccc(C(=O)Nc2ccc(F)c([C@@]3(C)N=C(N)CO[C@]3(F)C(F)(F)F)c2)nc1` [Compound 304], the IC50 was 0.589 µM in data set [1], 0.339 µM with Abeta total and 0.363 µM with Abeta 1-42.
`C[C@]1(c2cc(NC(=O)c3ncc(C#N)cc3Cl)ccc2F)N=C(N)CO[C@]1(F)C(F)(F)F` [Compound 306]: the values for the IC50 (in data set [1]; in the data set with Abeta total; in the data set with Abeta 1-42) were 0.0363 µM, 0.00741 µM and 0.00692 µM, respectively.
As for `C[C@]1(c2cc(NC(=O)c3ncc(C#N)cc3Cl)ccc2F)N=C(N)CO[C@@]1(F)C(F)(F)F` [Compound 307], the IC50 is 0.2 µM in data set [1], 0.0933 µM in the data set on Abeta total and 0.107 µM in the data set with Abeta 1-42.
On the same counts, the results for `C[C@]1(c2cc(NC(=O)c3ncc(C#N)cc3Cl)ccc2F)N=C(N)CO[C@H]1C(F)(F)F` [Compound 308] are 0.049 µM, 0.00617 µM and 0.00631 µM.
Taken in the same sequence, the figures for `N#Cc1cnc(C(=O)Nc2cccc([C@@]3(C4CC4)N=C(N)CO[C@H]3F)c2)c(Cl)c1` [Compound 309] were 0.219 µM, 0.0724 µM and 0.0741 µM.
On the same counts, the results for `CCC1(c2cc(-c3cncc(C#N)c3)ccc2F)N=C(N)COC1C(F)(F)F` (stereo not drawn) [Compound 310] are 3.31 µM, 0.617 µM and 0.776 µM.
`N#Cc1cncc(-c2cccc([C@@]3(C4CC4)N=C(N)CO[C@@H]3F)c2)c1` [Compound 311]: the IC50 in data set [1] was 1.38 µM; in the data set with Abeta total, 1.12 µM; in the data set with Abeta 1-42, 1.45 µM.
On the same counts, the results for `NC1=N[C@@](c2cc(-c3cncnc3)ccc2F)(C2CC2)[C@](F)(C(F)(F)F)OC1` [Compound 312] are 0.661 µM, 2.82 µM and 3.24 µM.
Taken in the same sequence, the figures for `Cc1cc(Br)cnc1C(=O)Nc1cccc([C@@]2(C3CC3)N=C(N)CO[C@@H]2F)c1` [Compound 313] were 0.0166 µM, 0.0135 µM and 0.0178 µM.
As to `Cc1cc(Cl)cnc1C(=O)Nc1ccc(F)c([C@@]2(C3CC3)N=C(N)CO[C@@H]2F)c1` [Compound 315], the IC50 in data set [1] was 0.0813 µM; in the data set on Abeta total, 0.145 µM; in the data set on Abeta 1-42 it was 0.17 µM.
On the same counts, the results for `C[C@]1(c2cc(-c3cncc(F)c3)c(F)cc2F)N=C(N)CO[C@@H]1C(F)(F)F` [Compound 316] are 1.15 µM, 0.631 µM and 0.724 µM.
Taken in the same sequence, the figures for `C[C@]1(c2cc(NC(=O)c3cnc(OCC(F)(F)F)cn3)ccc2F)N=C(N)CO[C@]1(F)C(F)(F)F` [Compound 318] were 0.355 µM, 0.724 µM and 0.851 µM.
On to `C[C@]1(c2cc(NC(=O)c3cnc(OCC(F)(F)F)cn3)ccc2F)N=C(N)CO[C@@]1(F)C(F)(F)F` [Compound 319], for which the IC50 in data set [1] was 0.0437 µM; in the data set on Abeta total, 0.0692 µM; in the data set with Abeta 1-42, 0.0741 µM.
Take `C[C@]1(c2cc(-c3cncc(C#N)c3)c(F)cc2F)N=C(N)CO[C@H]1C(F)(F)F` [Compound 351]: the values for the IC50 (in data set [1]; in the data set on Abeta total; in the data set on Abeta 1-42) were 2.04 µM, 0.468 µM and 0.55 µM, respectively.

The record behind these values is patent publication US9828350B2, “5,6-dihydro-2H-[1,4]oxazin-3-yl-amine derivatives useful as inhibitors of beta-secretase (BACE)” (Janssen Pharmaceutica NV, priority 2010, dated 2017).
